Measured values taken from EPA's ToxRefDB 2.

Key:
[1] = test system: rat; settings: Prenatal developmental toxicity study; sprague dawley; Injection; Intramuscular; dose end: 14 GD; group: developmental; developmental / developmental malformation / mouth / jaw / cleft palate + developmental / developmental malformation / trunk / umbilical …
[2] = test system: rat; settings: Prenatal developmental toxicity study, sprague dawley, Injection, Intramuscular, dose end: 13 GD
[3] = test system: mouse; settings: Combined chronic toxicity/carcinogenicity; b6c3f1; Oral; Feed; dose end: 103 week; group: systemic; systemic / in life observation / body weight / body weight
[4] = test system: rat; settings: Combined chronic toxicity/carcinogenicity, fischer, Oral, Feed, dose end: 103 week, group: systemic
[5] = test system: mouse; settings: Carcinogenicity, b6c3f1, Oral, Feed, dose end: 2 year, group: systemic
[6] = test system: rat; settings: Subchronic oral toxicity in rodents, fischer, Feed, dose end: 14 week, group: systemic
[7] = test system: rat; settings: Carcinogenicity, fischer, Oral, Feed, dose end: 2 year, group: systemic
[8] = test system: mouse; settings: Subchronic oral toxicity in rodents, b6c3f1, Feed, dose end: 14 week, group: systemic, systemic / hematology / mean corpuscular (cell) volume (mcv) / mean corpuscular (cell) volume (mcv) + systemic / hematology / mean …
[9] = test system: dog; settings: Sub-acute repeat dose toxicity, beagle, Oral, Gavage/Intubation, dose end: 4 week, group: systemic
[10] = test system: dog; settings: Sub-acute repeat dose toxicity, beagle, Oral, Gavage/Intubation, dose end: 4 week, group: systemic; remark: listed apart in the source
[11] = test system: rabbit; settings: Prenatal developmental toxicity study; himalayan; Oral; Gavage/Intubation; dose end: 18 GD; group: maternal; systemic / in life observation / clinical signs / defecation + systemic / in life observation / clinical signs / feces, discoloration + …
[12] = test system: rat; settings: Sub-acute repeat dose toxicity; sprague dawley; Oral; Gavage/Intubation; dose end: 4 week; group: systemic; systemic / organ weight / liver / absolute + systemic / organ weight / liver / relative to body weight
[13] = test system: primate; settings: Sub-acute repeat dose toxicity, macaque, Oral, Gavage/Intubation, dose end: 4 week, group: systemic
[14] = test system: rat; settings: Fertility (Segment I), Oral, Gavage/Intubation, dose end: 1 generation, group: parental
[15] = test system: rabbit; settings: Prenatal developmental toxicity study, new zealand white, Oral, Gavage/Intubation, dose end: 19 GD, group: maternal
[16] = test system: rat; settings: Prenatal developmental toxicity study, sprague dawley, Oral, Gavage/Intubation, dose end: 18 GD
[17] = test system: rat; settings: Fertility (Segment I), Oral, Gavage/Intubation, dose end: 1 generation
[18] = test system: rabbit; settings: Sub-acute repeat dose toxicity, new zealand white, Oral, Gavage/Intubation, dose end: 13 day, group: systemic
[19] = test system: rabbit; settings: Sub-acute repeat dose toxicity, new zealand white, Oral, Gavage/Intubation, dose end: 13 day
[20] = test system: rat; settings: Sub-acute dermal toxicity, sprague dawley, Topical, dose end: 2 week, group: systemic
[21] = test system: rat; settings: Subchronic dermal toxicity, Topical, dose end: 68 day, group: systemic
[22] = test system: rat; settings: Subchronic dermal toxicity, sprague dawley, Topical, dose end: 90 day, group: systemic, systemic / pathology microscopic / skin / acanthosis + systemic / pathology microscopic / skin / edema + systemic / pathology microscopic / …
[23] = test system: rat; settings: Multigenerational reproductive toxicity study, sprague dawley, Oral, Feed, dose end: 2 generation
[24] = test system: rat; settings: Combined chronic toxicity/carcinogenicity, sprague dawley, Oral, Feed, dose end: 104 week, group: systemic
[25] = test system: mouse; settings: Carcinogenicity, cd1, Oral, Feed, dose end: 22 month, group: systemic
[26] = group: developmental, developmental / developmental malformation / mouth / jaw / cleft palate + developmental / developmental malformation / trunk / umbilical …
[27] = group: developmental, developmental / developmental malformation / mouth / jaw / cleft palate + systemic / in life observation / body weight / fetal weight
[28] = group: maternal, reproductive / offspring survival early / dead fetuses / dead fetuses
[29] = systemic / pathology microscopic / pancreas / adenoma/carcinoma combined
[30] = systemic / in life observation / body weight / body weight
[31] = systemic / in life observation / body weight / body weight + systemic / pathology microscopic / nose / pigmentation
[32] = systemic / clinical chemistry / alanine aminotransferase (alt/sgpt) / alanine aminotransferase (alt/sgpt) + systemic / clinical chemistry / …
[33] = systemic / clinical chemistry / bile acids / bile acids + systemic / in life observation / body weight / body weight + systemic / in life …
[34] = systemic / in life observation / body weight / body weight + systemic / in life observation / food consumption / food consumption
[35] = systemic / clinical chemistry / alkaline phosphatase (alp/alk) / alkaline phosphatase (alp/alk) + systemic / pathology microscopic / liver…
[36] = systemic / pathology microscopic / liver / pigmentation
[37] = systemic / clinical chemistry / alkaline phosphatase (alp/alk) / alkaline phosphatase (alp/alk)
[38] = systemic / clinical chemistry / bilirubin / total bilirubin + systemic / organ weight / liver / relative to body weight + systemic / …
[39] = systemic / pathology microscopic / liver / granuloma + systemic / pathology microscopic / liver / infiltration cellular + systemic / …
[40] = systemic / in life observation / body weight / body weight gain + systemic / in life observation / clinical signs / salivation
[41] = reproductive / reproductive performance / aborted / aborted + systemic / in life observation / body weight / body weight gain + systemic / …
[42] = systemic / in life observation / clinical signs / abnormal feces
[43] = group: developmental, developmental / developmental malformation / bone / delayed ossification + developmental / developmental malformation / kidney / dilated …
[44] = group: maternal, systemic / in life observation / body weight / body weight + systemic / in life observation / clinical signs / salivation + systemic / in …
[45] = group: maternal, reproductive / reproductive performance / estrous cycle / length
[46] = group: parental, systemic / in life observation / body weight / body weight gain + systemic / in life observation / clinical signs / salivation + systemic / …
[47] = systemic / in life observation / clinical signs / tarry stools
[48] = systemic / in life observation / clinical signs / tarry stools + systemic / in life observation / body weight / body weight + systemic / in …
[49] = group: maternal, reproductive / reproductive performance / aborted / aborted
[50] = group: systemic, systemic / in life observation / body weight / body weight + systemic / in life observation / clinical signs / abnormal feces + systemic / …
[51] = group: systemic, systemic / in life observation / clinical signs / abnormal feces
[52] = systemic / in life observation / clinical signs / erythema
[53] = systemic / in life observation / clinical signs / erythema + systemic / in life observation / clinical signs / general pallor + systemic / …
[54] = systemic / in life observation / clinical signs / [other] + systemic / pathology gross / skin / thickened + systemic / pathology gross / …
[55] = group: offspring, systemic / in life observation / body weight / offspring (pup) weight
[56] = group: parental, systemic / in life observation / body weight / body weight + systemic / in life observation / body weight / body weight gain
[57] = systemic / in life observation / body weight / body weight + systemic / in life observation / body weight / body weight gain
[58] = systemic / in life observation / body weight / body weight + systemic / in life observation / body weight / body weight gain + systemic / …
[59] = systemic / in life observation / body weight / body weight + systemic / in life observation / body weight / body weight gain + systemic / in…

SMILES: CC1(C)O[C@@H]2C[C@H]3[C@@H]4CCC5=CC(=O)C=C[C@]5(C)[C@@]4(F)[C@@H](O)C[C@]3(C)[C@]2(C(=O)CO)O1 [Triamcinolone acetonide]
- LEL [1]: 0.5 mg/kg/day
- LOAEL [1]: > 0.5 mg/kg/day
- NEL [1]: < 0.5 mg/kg/day
- NOAEL [1]: ≥ 0.5 mg/kg/day
- LOAEL [2, 26]: > 5 mg/kg/day
- NOAEL [2, 26]: ≥ 5 mg/kg/day
- LEL [2, 27]: 0.5 mg/kg/day
- NEL [2, 27]: < 0.5 mg/kg/day
- LEL [2, 28]: 2.5 mg/kg/day
- LOAEL [2, 28]: > 5 mg/kg/day
- NEL [2, 28]: 0.5 mg/kg/day
- NOAEL [2, 28]: ≥ 5 mg/kg/day

SMILES: CN(C)[C@@H]1C(=O)C(C(N)=O)=C(O)[C@@]2(O)C(=O)C3=C(O)c4c(O)cccc4[C@@](C)(O)[C@H]3C[C@@H]12.Cl [Tetracycline hydrochloride]
- LEL [3]: 1500 mg/kg/day
- LOAEL [3]: 1500 mg/kg/day
- NEL [3]: < 1500 mg/kg/day
- NOAEL [3]: < 1500 mg/kg/day
- LOAEL ([4]; systemic / pathology microscopic / liver / clear cell focus + systemic / pathology microscopic / liver / cytoplasmic alteration): 910 mg/kg/day
- NOAEL ([4]; systemic / pathology microscopic / liver / clear cell focus + systemic / pathology microscopic / liver / cytoplasmic alteration + systemic…): 440 mg/kg/day
- LEL [4, 29]: 440 mg/kg/day
- NEL [4, 29]: < 440 mg/kg/day

SMILES: O=C/C=C/c1ccccc1 [(2E)-3-Phenylprop-2-enal]
- LOAEL [5, 30]: 270 mg/kg/day
- LEL [5, 31]: 270 mg/kg/day
- NEL [5, 31]: 125 mg/kg/day
- NOAEL [5, 31]: 125 mg/kg/day
- LOAEL [6, 32]: > 3100 mg/kg/day
- NOAEL [6, 32]: ≥ 3100 mg/kg/day
- LEL [6, 33]: 275 mg/kg/day
- NEL [6, 33]: < 275 mg/kg/day
- LOAEL [7, 30]: 200 mg/kg/day
- LEL [7, 34]: 100 mg/kg/day
- NEL [7, 34]: 50 mg/kg/day
- NOAEL [7, 34]: 100 mg/kg/day
- LEL [8]: 1320 mg/kg/day
- LOAEL [8]: > 5200 mg/kg/day
- NEL [8]: 650 mg/kg/day
- NOAEL [8]: ≥ 5200 mg/kg/day

SMILES: CC[C@H](NC(=O)c1cc(F)ccc1[N-]S(=O)(=O)c1cccc2cccnc12)c1ccccc1.[Na+] [AVE3295]
- LOAEL [9, 35]: 5 mg/kg/day
- NOAEL [9, 35]: 1 mg/kg/day
- LEL [9, 36]: 1 mg/kg/day
- NEL [9, 36]: < 1 mg/kg/day
- LOAEL [10, 32]: > 300 mg/kg/day
- NOAEL [10, 32]: ≥ 300 mg/kg/day
- LEL [10, 37]: 10 mg/kg/day
- NEL [10, 37]: < 10 mg/kg/day
- LEL [11]: 1000 mg/kg/day
- LOAEL [11]: > 1000 mg/kg/day
- NEL [11]: 250 mg/kg/day
- NOAEL [11]: ≥ 1000 mg/kg/day
- LEL [12]: 2000 mg/kg/day
- LOAEL [12]: > 2000 mg/kg/day
- NEL [12]: 315 mg/kg/day
- NOAEL [12]: ≥ 2000 mg/kg/day
- LOAEL [13, 38]: > 1000 mg/kg/day
- NOAEL [13, 38]: ≥ 1000 mg/kg/day
- LEL [13, 39]: 60 mg/kg/day
- NEL [13, 39]: < 60 mg/kg/day

SMILES: CCOc1cccc(C2(N3CCN(c4ccccc4)CC3)CCC(C)CC2)c1.CS(=O)(=O)O (centres undefined)
- LOAEL [14, 40]: > 100 mg/kg/day
- NEL [14, 40]: 10 mg/kg/day
- NOAEL [14, 40]: ≥ 100 mg/kg/day
- LEL ([14]; systemic / in life observation / clinical signs / salivation): 30 mg/kg/day
- LOAEL [15, 41]: > 300 mg/kg/day
- NOAEL [15, 41]: ≥ 300 mg/kg/day
- LEL [15, 42]: 15 mg/kg/day
- NEL [15, 42]: < 15 mg/kg/day
- LEL [16, 43]: 60 mg/kg/day
- LOAEL [16, 43]: > 125 mg/kg/day
- NOAEL [16, 43]: ≥ 125 mg/kg/day
- LEL [16, 44]: 60 mg/kg/day
- LOAEL [16, 44]: > 125 mg/kg/day
- NEL [16, 44]: 12 mg/kg/day
- NOAEL [16, 44]: ≥ 125 mg/kg/day
- LEL [17, 45]: 10 mg/kg/day
- LOAEL [17, 45]: > 100 mg/kg/day
- NEL [17, 45]: < 10 mg/kg/day
- NOAEL [17, 45]: ≥ 100 mg/kg/day
- LEL [17, 46]: 30 mg/kg/day
- LOAEL [17, 46]: > 100 mg/kg/day
- NEL [17, 46]: 10 mg/kg/day
- NOAEL [17, 46]: ≥ 100 mg/kg/day
- LEL [18, 47]: 100 mg/kg/day
- NEL [18, 47]: < 100 mg/kg/day
- LOAEL [18, 48]: > 1000 mg/kg/day
- NOAEL [18, 48]: ≥ 1000 mg/kg/day
- LEL [19, 49]: 300 mg/kg/day
- LOAEL [19, 49]: > 500 mg/kg/day
- NEL [19, 49]: 100 mg/kg/day
- NOAEL [19, 49]: ≥ 500 mg/kg/day
- LOAEL [19, 50]: > 500 mg/kg/day
- NOAEL [19, 50]: ≥ 500 mg/kg/day
- LEL [19, 51]: 100 mg/kg/day
- NEL [19, 51]: < 100 mg/kg/day

SMILES: CC1(C)COCN1 [4,4-Dimethyloxazolidine]
- LEL [20, 52]: 10 mg/kg/day
- LOAEL [20, 52]: 10 mg/kg/day
- NEL [20, 53]: 1 mg/kg/day
- NOAEL [20, 53]: 1 mg/kg/day
- LEL ([21]; systemic / in life observation / clinical signs / [other]): 19.5 mg/kg/day
- LOAEL [21, 54]: 195 mg/kg/day
- NEL [21, 54]: 1.95 mg/kg/day
- NOAEL [21, 54]: 19.5 mg/kg/day
- LEL [22]: 30 mg/kg/day
- LOAEL [22]: 30 mg/kg/day
- NEL [22]: 1 mg/kg/day
- NOAEL [22]: 1 mg/kg/day

SMILES: COc1nc(NC(C)C)nc(NC(C)C)n1 [Prometon]
- LEL [23, 55]: 35.1 mg/kg/day
- LOAEL [23, 55]: 35.1 mg/kg/day
- NEL [23, 55]: 1.45 mg/kg/day
- NOAEL [23, 55]: 1.45 mg/kg/day
- LEL [23, 56]: 35.1 mg/kg/day
- LOAEL [23, 56]: 35.1 mg/kg/day
- NEL [23, 56]: 1.45 mg/kg/day
- NOAEL [23, 56]: 1.45 mg/kg/day
- LEL [24, 57]: 23.3 mg/kg/day
- LOAEL [24, 57]: 23.3 mg/kg/day
- NEL [24, 58]: 0.89 mg/kg/day
- NOAEL [24, 58]: 0.89 mg/kg/day
- LOAEL [25, 59]: 737 mg/kg/day
- NEL [25, 59]: 1.7 mg/kg/day
- NOAEL [25, 59]: 70 mg/kg/day
- LEL ([25]; systemic / pathology microscopic / spleen / depletion): 70 mg/kg/day
